Experimental data from patent US11357779B2 (G1 Therapeutics, Inc., priority 2018, dated 2022).
Read-outs that look alike come from different tables or passages of the source.

Test: Plasma concentration versus time of Compound I and metabolite Compound III in patients dosed QD or BID with Form B of Compound II plus fulvestrant
Format: in vivo, human
Settings: human, plasma, oral; for concentration at 8 day / concentration at 15 day: Cohort 7, 150 mg BID of Form B; for concentration at 8 day: Day 8; for concentration at 15 day: Day 15
Text: Patients were enrolled into 1 of 2 parallel, independently operating, dose-escalation dosing cohorts with Form B of Compound II administered continuously either once daily (QD) or twice daily (BID) with food with fixed-dose fulvestrant (intramuscularly every 14 days for the first three injections and then every 28 days). Pre- or perimenopausal patients also received goserelin for the duration of study treatment. A […] agonist was started at least 28 days before the first dose of Form B, and those patients who were taking another LHRH agonist were switched to goserelin on Day 1. Patients were split into […] cohorts providing once a day (QD) dosing of 200 mg, 300 mg, 400 mg, 500 mg, or 650 mg of Form B, or twice a day (BID) dosing of 100 mg, 150 mg, or 200 mg of Form B. The second dose in BID cohorts was not administered in the evening until at least 12 hours after the initial morning dose of Form B. The dosing cohorts for Form B of Compound II are provided in Table 1.
Blood samples were collected at the following time points relative to the morning dose of Form B at Day 1 and at Day 29: pre-dose (0 hour) and 1, 2, 3, 4, 6, 8, 10, 12 (prior to the evening dose in the BID cohorts), and 24 (prior to the next day's morning dose) hours after dosing. A 5-minute time window was allowed for samples collected between the predose and 3 hours after Form B dosing. A 15-minute window was allowed for samples collected between 4 to 12 hours after Form B dosing. A 1-hour window was allowed for the sample collected 24 hours after Form B dosing. Blood samples for Compound I PK trough levels were collected pre-dose at Day 8, Day 15, and Day 22 prior to the morning administration of Compound I. Plasma concentrations of Compound I and its metabolite, Compound III, were measured using validated methods.
Analysis of plasma concentration versus time data for calculation of standard pharmacokinetic (PK) parameters following oral administration was conducted using Phoenix WinNonlin version 6.3 using actual blood sampling times.

[1] = 150 mg, read-out: Trough Compound I Concentration, Max
[2] = 150 mg, read-out: Trough Compound I Concentration, Median

Q: Which results are given for CC(C)N1CCN(c2ccc(Nc3ncc4cc5n(c4n3)C3(CCCCC3)CNC5=O)nc2)CC1 [Compound I, 2′-((5-(4-isopropylpiperazin-1-yl)pyridin-2-yl)amino)-7′,8′-dihydro-6′H-spiro[cyclohexane-1,9′-pyrazino[1′,2′:1,5]pyrrolo[2,3-d]pyrimidin]-6′-one]?
A: concentration at 0 h (100 mg, Cohort 6, 100 mg BID of Form B, Day 29, 0.0 h, read-out: Compound I Concentration, Median): 4.13 ng/mL; concentration at 0 h (100 mg, Cohort 6, 100 mg BID of Form B, Day 29, 0.0 h, read-out: Compound I Concentration, Min): 1.54 ng/mL; concentration at 1 h (100 mg, Cohort 6, 100 mg BID of Form B, Day 29, 1.0 h, read-out: Compound I Concentration, Max): 15.7 ng/mL; concentration at 1 h (100 mg, Cohort 6, 100 mg BID of Form B, Day 29, 1.0 h, read-out: Compound I Concentration, Mean): 9.25 ng/mL; concentration at 1 h (100 mg, Cohort 6, 100 mg BID of Form B, Day 29, 1.0 h, read-out: Compound I Concentration, Median): 9.34 ng/mL; concentration at 1 h (100 mg, Cohort 6, 100 mg BID of Form B, Day 29, 1.0 h, read-out: Compound I Concentration, Min): 1.79 ng/mL; concentration at 2 h (100 mg, Cohort 6, 100 mg BID of Form B, Day 29, 2.0 h, read-out: Compound I Concentration, Max): 19.6 ng/mL; concentration at 2 h (100 mg, Cohort 6, 100 mg BID of Form B, Day 29, 2.0 h, read-out: Compound I Concentration, Mean): 11 ng/mL; concentration at 2 h (100 mg, Cohort 6, 100 mg BID of Form B, Day 29, 2.0 h, read-out: Compound I Concentration, Median): 11.8 ng/mL; concentration at 2 h (100 mg, Cohort 6, 100 mg BID of Form B, Day 29, 2.0 h, read-out: Compound I Concentration, Min): 2.94 ng/mL; concentration at 3 h (100 mg, Cohort 6, 100 mg BID of Form B, Day 29, 3.0 h, read-out: Compound I Concentration, Max): 20.5 ng/mL; concentration at 3 h (100 mg, Cohort 6, 100 mg BID of Form B, Day 29, 3.0 h, read-out: Compound I Concentration, Mean): 10.5 ng/mL; concentration at 3 h (100 mg, Cohort 6, 100 mg BID of Form B, Day 29, 3.0 h, read-out: Compound I Concentration, Median): 8.31 ng/mL; concentration at 3 h (100 mg, Cohort 6, 100 mg BID of Form B, Day 29, 3.0 h, read-out: Compound I Concentration, Min): 4.4 ng/mL; concentration at 4 h (100 mg, Cohort 6, 100 mg BID of Form B, Day 29, 4.0 h, read-out: Compound I Concentration, Max): 19.8 ng/mL; concentration at 4 h (100 mg, Cohort 6, 100 mg BID of Form B, Day 29, 4.0 h, read-out: Compound I Concentration, Mean): 10.5 ng/mL; concentration at 4 h (100 mg, Cohort 6, 100 mg BID of Form B, Day 29, 4.0 h, read-out: Compound I Concentration, Median): 9.26 ng/mL; concentration at 4 h (100 mg, Cohort 6, 100 mg BID of Form B, Day 29, 4.0 h, read-out: Compound I Concentration, Min): 5.14 ng/mL; concentration at 6 h (100 mg, Cohort 6, 100 mg BID of Form B, Day 29, 6.0 h, read-out: Compound I Concentration, Max): 16.2 ng/mL; concentration at 6 h (100 mg, Cohort 6, 100 mg BID of Form B, Day 29, 6.0 h, read-out: Compound I Concentration, Mean): 8.82 ng/mL; concentration at 6 h (100 mg, Cohort 6, 100 mg BID of Form B, Day 29, 6.0 h, read-out: Compound I Concentration, Median): 8.11 ng/mL; concentration at 6 h (100 mg, Cohort 6, 100 mg BID of Form B, Day 29, 6.0 h, read-out: Compound I Concentration, Min): 4.1 ng/mL; concentration at 8 h (100 mg, Cohort 6, 100 mg BID of Form B, Day 29, 8.0 h, read-out: Compound I Concentration, Max): 13.8 ng/mL; concentration at 8 h (100 mg, Cohort 6, 100 mg BID of Form B, Day 29, 8.0 h, read-out: Compound I Concentration, Mean): 7.45 ng/mL; concentration at 8 h (100 mg, Cohort 6, 100 mg BID of Form B, Day 29, 8.0 h, read-out: Compound I Concentration, Median): 6.57 ng/mL; concentration at 8 h (100 mg, Cohort 6, 100 mg BID of Form B, Day 29, 8.0 h, read-out: Compound I Concentration, Min): 3.61 ng/mL; concentration at 10 h (100 mg, Cohort 6, 100 mg BID of Form B, Day 29, 10.0 h, read-out: Compound I Concentration, Max): 11.4 ng/mL; concentration at 10 h (100 mg, Cohort 6, 100 mg BID of Form B, Day 29, 10.0 h, read-out: Compound I Concentration, Mean): 6.23 ng/mL; concentration at 10 h (100 mg, Cohort 6, 100 mg BID of Form B, Day 29, 10.0 h, read-out: Compound I Concentration, Median): 5.44 ng/mL; concentration at 10 h (100 mg, Cohort 6, 100 mg BID of Form B, Day 29, 10.0 h, read-out: Compound I Concentration, Min): 2.88 ng/mL; concentration at 12 h (100 mg, Cohort 6, 100 mg BID of Form B, Day 29, 12.0 h, read-out: Compound I Concentration, Max): 10.1 ng/mL; concentration at 12 h (100 mg, Cohort 6, 100 mg BID of Form B, Day 29, 12.0 h, read-out: Compound I Concentration, Mean): 7.16 ng/mL; concentration at 12 h (100 mg, Cohort 6, 100 mg BID of Form B, Day 29, 12.0 h, read-out: Compound I Concentration, Median): 8.36 ng/mL; concentration at 12 h (100 mg, Cohort 6, 100 mg BID of Form B, Day 29, 12.0 h, read-out: Compound I Concentration, Min): 2.37 ng/mL; concentration at 0 h (150 mg, 150 mg BID of Form B, Day 1, 0.0 h, Mean, read-out: Compound I Concentration): 0 ng/mL; concentration at 0 h (150 mg, 150 mg BID of Form B, Day 1, 0.0 h, Median, read-out: Compound I Concentration): 0 ng/mL; concentration at 1 h (150 mg, 150 mg BID of Form B, Day 1, 1.0 h, Mean, read-out: Compound I Concentration): 4.63 ng/mL; concentration at 1 h (150 mg, 150 mg BID of Form B, Day 1, 1.0 h, Median, read-out: Compound I Concentration): 5.06 ng/mL; concentration at 2 h (150 mg, 150 mg BID of Form B, Day 1, 2.0 h, Mean, read-out: Compound I Concentration): 11 ng/mL; concentration at 2 h (150 mg, 150 mg BID of Form B, Day 1, 2.0 h, Median, read-out: Compound I Concentration): 11.6 ng/mL; concentration at 3 h (150 mg, 150 mg BID of Form B, Day 1, 3.0 h, Mean, read-out: Compound I Concentration): 14.4 ng/mL; concentration at 3 h (150 mg, 150 mg BID of Form B, Day 1, 3.0 h, Median, read-out: Compound I Concentration): 10.2 ng/mL; concentration at 4 h (150 mg, 150 mg BID of Form B, Day 1, 4.0 h, Mean, read-out: Compound I Concentration): 20.7 ng/mL; concentration at 4 h (150 mg, 150 mg BID of Form B, Day 1, 4.0 h, Median, read-out: Compound I Concentration): 21.5 ng/mL; concentration at 6 h (150 mg, 150 mg BID of Form B, Day 1, 6.0 h, Mean, read-out: Compound I Concentration): 12.2 ng/mL; concentration at 6 h (150 mg, 150 mg BID of Form B, Day 1, 6.0 h, Median, read-out: Compound I Concentration): 10.4 ng/mL; concentration at 8 h (150 mg, 150 mg BID of Form B, Day 1, 8.0 h, Mean, read-out: Compound I Concentration): 10.1 ng/mL; concentration at 8 h (150 mg, 150 mg BID of Form B, Day 1, 8.0 h, Median, read-out: Compound I Concentration): 9.95 ng/mL; concentration at 10 h (150 mg, 150 mg BID of Form B, Day 1, 10.0 h, Mean, read-out: Compound I Concentration): 8.98 ng/mL; concentration at 10 h (150 mg, 150 mg BID of Form B, Day 1, 10.0 h, Median, read-out: Compound I Concentration): 8.98 ng/mL; concentration at 12 h (150 mg, 150 mg BID of Form B, Day 1, 12.0 h, Mean, read-out: Compound I Concentration): 7.73 ng/mL; concentration at 12 h (150 mg, 150 mg BID of Form B, Day 1, 12.0 h, Median, read-out: Compound I Concentration): 7.38 ng/mL; concentration at 8 day [1]: 42.3 ng/mL; concentration at 8 day (150 mg, read-out: Trough Compound I Concentration, Mean): 26.8 ng/mL; concentration at 8 day [2]: 20.6 ng/mL; concentration at 8 day (150 mg, read-out: Trough Compound I Concentration, Min): 17.4 ng/mL; concentration at 15 day [1]: 35.7 ng/mL; concentration at 15 day [2]: 23.3 ng/mL
